The experiment deals with Lymphoma 4 ip in BDF1 mice, median survival. In words: NCI In Vivo Anticancer Drug Screen. Data for tumor model Lymphoma 4 (intraperitoneal) in B6D2F1 (BDF1) mice. The note with it: endpoint: median survival time, schedule: Q01DX010 (ip), higher = longer survival. How it is done: The antitumor activity of compounds was measured in mice bearing transplantable tumors. Survival or tumor size were measured and the results are expressed as the measurement made in the treated group (T) divided by the measurement made in the vehicle treated control group (C). The tumor model used in this assay is Lymphoma 4 (intraperitoneal) in B6D2F1 (BDF1) mice

The mark [1] stands for this setting: dose: 8.0 mg/kg/injection, vehicle: saline.
Where [2] appears, read: dose: 16.0 mg/kg/injection, vehicle: saline.
The mark [3] stands for this setting: dose: 0.5 mg/kg/injection, vehicle: saline.
Setting [4] is: dose: 1.0 mg/kg/injection, vehicle: saline.
[5] abbreviates: dose: 2.0 mg/kg/injection, vehicle: saline.
The mark [6] stands for this setting: dose: 0.25 mg/kg/injection, vehicle: saline.
The mark [7] stands for this setting: dose: 1.25 mg/kg/injection, vehicle: saline.

Molecules are shown by their SMILES. “And” between values parts separate entries of the source, which are not always exact repeats. Equal entries are not always repeated. Toxic doses and inconclusive results are not listed.

Regarding `CN(C)c1ccc(Nc2c3ccccc3nc3ccccc23)cc1`, the T/C is 107 % of control (dose: 36.0 mg/kg/injection, vehicle: saline); 100 % of control and 115 % of control (dose: 54.0 mg/kg/injection, vehicle: saline); 121 % of control and 123 % of control (dose: 80.0 mg/kg/injection, vehicle: saline).
Regarding `CCOC(N)=O`, the T/C was 103 % of control and 117 % of control (dose: 125.0 mg/kg/injection, vehicle: saline); 106 % of control and 111 % of control (dose: 250.0 mg/kg/injection, vehicle: saline).
Consider `N#CCSc1ncnc2nc[nH]c12`, for which the T/C (dose: 15.0 mg/kg/injection, vehicle: saline) was 103 % of control; the T/C (dose: 30.0 mg/kg/injection, vehicle: saline) was 100 % of control and 107 % of control; the T/C (dose: 60.0 mg/kg/injection, vehicle: saline) is 100 % of control and 107 % of control; the T/C (dose: 120.0 mg/kg/injection, vehicle: saline) is 107 % of control.
As for `Nc1nc(SCc2ccccc2)c2[nH]cnc2n1`, the T/C is 96 % of control and 100 % of control under setting [1]; 96 % of control and 100 % of control under setting [2].
Regarding `COCCCNP(=S)(N1CC1)N1CC1`, the T/C by setting is: under setting [3], 93 % of control; under setting [4], 100 % of control; under setting [5], 113 % of control; (dose: 4.0 mg/kg/injection, vehicle: saline) 116 % of control.
`Nc1nc(=S)c2ncn(C3OC(CO)C(O)C3O)c2[nH]1` (stereo not given): the T/C runs as follows: under setting [6], 100 % of control; under setting [3], 106 % of control; under setting [4], 102 % of control and 115 % of control; under setting [5], 100 % of control.
For the molecule `C1CN1c1nc(N2CC2)nc(N2CC2)n1`, the T/C was 94 % of control and 105 % of control (dose: 0.13 mg/kg/injection, vehicle: saline); 100 % of control and 102 % of control under setting [6]; 108 % of control under setting [3]; 97 % of control under setting [4].
For the molecule `CC[n+]1c(-c2ccccc2)c2cc(N)ccc2c2ccc(N)cc21`, the T/C (dose: 10.0 mg/kg/injection, vehicle: saline) was 242 % of control.
Take `O=C(Nc1ccc(NC2=NCCN2)cc1)c1ccc(C(=O)Nc2ccc(NC3=NCCN3)cc2)cc1`: the T/C reads like this: under setting [5], 113 % of control and 121 % of control; under setting [1], 207 % of control; under setting [2], 96 % of control.
With `CCCCNc1ncnc2c1cnn2C`, the T/C is, setting by setting: (dose: 15.6 mg/kg/injection, vehicle: saline) 103 % of control and 108 % of control; (dose: 31.3 mg/kg/injection, vehicle: saline) 102 % of control and 103 % of control; (dose: 62.5 mg/kg/injection, vehicle: saline) 100 % of control and 123 % of control.
On to `Nc1nc(=S)c2[nH]cnc2[nH]1`, for which the T/C was 88 % of control (dose: 1.25 mg/kg/injection, vehicle: other); 94 % of control under setting [7]; 88 % of control (dose: 2.5 mg/kg/injection, vehicle: saline).
With `S=P(N1CCOCC1)(N1CC1)N1CC1`, the T/C (dose: 0.63 mg/kg/injection, vehicle: saline) is 100 % of control and the T/C under setting [7] was 100 % of control.

Source of the values: PubChem BioAssay AID240 (DTP/NCI, 2004).
